Measured values from patent US20260102628A1, “METHOD AND APPARATUS FOR MONITORING OF PHOTODYNAMIC-THERAPY PRECURSOR STATES FOR ENHANCED THERAPEUTIC EFFICIENCY” (priority 2022, published 2026).

Experiment: Optical fiber-coupled TRAST curves of IR700 in tissue and PBS buffer solution, with and without ascorbic acid
Type: physicochemical
Details: IR700 in tissue or PBS buffer solution, FIG. 6B
Excerpt: FIG. 6A illustrates the presently disclosed embodiment of a system for PDT (611), wherein the system is arranged such that the same excitation-light-delivering fiber(s) also are arranged as detection fiber(s). The system may thus be arranged to carry out a method for PDT as disclosed elsewhere herein.
The system (611) typically comprises an intensity-modulated excitation light (605), e.g. from a laser (601) and an AOM (602). The excitation light (605) is applied, e.g. lensed by an objective (603), via a gradient-index multimode optical fiber (604), into a sample (609, tissue or water solution). […] The fluorescence plotted in the TRAST curves (612), corresponds to the (average) fluorescence from the PS compounds generated by the (modulated) excitation at the fiber end, which was collected (606) by the same fiber (604), passed through the fiber, through a dichroic mirror (607), and was then detected in a region-of-interest (ROI) within the field of detection of a camera (608). While only one fiber is shown in FIG. 6A, the system may comprise multiple fibers, into which excitation light from one or several lasers is introduced, and via which fluorescence detected from their fiber-ends is fed to different ROIs detected on the camera pixel array, and/or to a set of point detectors. […]

Row | Compound | time range of the prominent relaxation in the TRAST curves, attributed to build-up of a photo-reduced radical state population in IR700 (after addition of ascorbic acid) [ms] | time range of the faster major relaxation in the TRAST curves, attributed to T1 build-up
1 | O=C1O[C@H]([C@@H](O)CO)C(O)=C1O [ascorbic acid] | ~0.1 | 
2 | C[Si](C)(CCC[N+](CCCS(=O)(=O)[O-])(CCCS(=O)(=O)[O-])CCCS(=O)(=O)[O-])O[Si]1(O[Si](C)(C)CCC[N+](CCCS(=O)(=O)[O-])(CCCS(=O)(=O)[O-])CCCS(=O)(=O)[O-])n2c3c4ccccc4c2N=C2N=C(N=c4c5ccccc5c(n41)=NC1=NC(=N3)c3ccccc31)c1cccc(OCCCOC(=O)NCCCCCC(=O)ON3C(=O)CCC3=O)c12.[Na+].[Na+].[Na+].[Na+] (centres unmarked) [IR700, IRdye700DX] |  | microsecond time range
